# Test results: PubChem BioAssay (NCI)
#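 48-hour exposure; five concentrations; linearly interpolated endpoints. The concentration for full growth arrest is given as TGI.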
# Key:
# Assay in all cases: NCI anticancer screen, dose series, 48 h
# 786-0 renal = tested on: 786-0 renal
# A498 renal = tested on: A498 renal
# A549 NSCLC = tested on: A549 NSCLC
# ACHN renal = tested on: ACHN renal
# BT-549 breast = tested on: BT-549 breast
# CAKI-1 renal = tested on: CAKI-1 renal
# CCRF-CEM leukemia = tested on: CCRF-CEM leukemia
# COLO 205 colon = tested on: COLO 205 colon
# DLD-1 colon = tested on: DLD-1 colon
# DMS 114 small cell lung = tested on: DMS 114 small cell lung
# DMS 273 small cell lung = tested on: DMS 273 small cell lung
# DU-145 prostate = tested on: DU-145 prostate
# EKVX NSCLC = tested on: EKVX NSCLC
# HCC-2998 colon = tested on: HCC-2998 colon
# HCT-116 colon = tested on: HCT-116 colon
# HCT-15 colon = tested on: HCT-15 colon
# HL-60(TB) leukemia = tested on: HL-60(TB) leukemia
# HOP-18 NSCLC = tested on: HOP-18 NSCLC
# HOP-62 NSCLC = tested on: HOP-62 NSCLC
# HOP-92 NSCLC = tested on: HOP-92 NSCLC
# HS 578T breast = tested on: HS 578T breast
# HT29 colon = tested on: HT29 colon
# IGROV1 ovarian = tested on: IGROV1 ovarian
# K-562 leukemia = tested on: K-562 leukemia
# KM12 colon = tested on: KM12 colon
# KM20L2 colon = tested on: KM20L2 colon
# LOX IMVI melanoma = tested on: LOX IMVI melanoma
# LXFL 529 NSCLC = tested on: LXFL 529 NSCLC
# M14 melanoma = tested on: M14 melanoma
# M19-MEL melanoma = tested on: M19-MEL melanoma
# MALME-3M melanoma = tested on: MALME-3M melanoma
# MCF7 breast = tested on: MCF7 breast
# MDA-MB-231 breast = tested on: MDA-MB-231 breast
# MDA-MB-435 = tested on: MDA-MB-435
# MDA-N = tested on: MDA-N
# MOLT-4 leukemia = tested on: MOLT-4 leukemia
# NCI-H226 lung = tested on: NCI-H226 lung
# NCI-H23 lung = tested on: NCI-H23 lung
# NCI-H460 lung = tested on: NCI-H460 lung
# NCI-H522 lung = tested on: NCI-H522 lung
# NCI/ADR-RES ovarian = tested on: NCI/ADR-RES ovarian
# OVCAR-3 ovarian = tested on: OVCAR-3 ovarian
# OVCAR-4 ovarian = tested on: OVCAR-4 ovarian
# OVCAR-5 ovarian = tested on: OVCAR-5 ovarian
# OVCAR-8 ovarian = tested on: OVCAR-8 ovarian
# PC-3 prostate = tested on: PC-3 prostate
# RPMI-8226 leukemia = tested on: RPMI-8226 leukemia
# RXF 393 renal = tested on: RXF 393 renal
# SF-268 CNS = tested on: SF-268 CNS
# SF-295 CNS = tested on: SF-295 CNS
# SF-539 CNS = tested on: SF-539 CNS
# SK-MEL-2 melanoma = tested on: SK-MEL-2 melanoma
# SK-MEL-28 melanoma = tested on: SK-MEL-28 melanoma
# SK-MEL-5 melanoma = tested on: SK-MEL-5 melanoma
# SK-OV-3 ovarian = tested on: SK-OV-3 ovarian
# SN12C renal = tested on: SN12C renal
# SNB-19 CNS = tested on: SNB-19 CNS
# SNB-75 CNS = tested on: SNB-75 CNS
# SNB-78 CNS = tested on: SNB-78 CNS
# SR leukemia = tested on: SR leukemia
# SW-620 colon = tested on: SW-620 colon
# T-47D breast = tested on: T-47D breast
# TK-10 renal = tested on: TK-10 renal
# U251 CNS = tested on: U251 CNS
# UACC-257 melanoma = tested on: UACC-257 melanoma
# UACC-62 melanoma = tested on: UACC-62 melanoma
# UO-31 renal = tested on: UO-31 renal
compound,measurement,setting,value
CCCCCCCCCCCCCCCC(=O)Nc1ccn(C2OC(CO)C(O)C2O)c(=O)n1 (centres undefined),TGI,786-0 renal,> 100 µM
same,TGI,A498 renal,> 100 µM
same,TGI,A549 NSCLC,> 100 µM
same,TGI,ACHN renal,99.4 µM
same,TGI,BT-549 breast,> 100 µM
same,TGI,CAKI-1 renal,> 100 µM
same,TGI,CCRF-CEM leukemia,7.28 µM
same,TGI,COLO 205 colon,> 100 µM
same,TGI,DLD-1 colon,> 100 µM
same,TGI,DMS 114 small cell lung,> 100 µM
same,TGI,DMS 273 small cell lung,> 100 µM
same,TGI,DU-145 prostate,> 50.3 µM
same,TGI,EKVX NSCLC,> 100 µM
same,TGI,HCC-2998 colon,> 100 µM
same,TGI,HCT-116 colon,> 100 µM
same,TGI,HCT-15 colon,> 100 µM
same,TGI,HL-60(TB) leukemia,43.3 µM
same,TGI,HOP-18 NSCLC,> 100 µM
same,TGI,HOP-62 NSCLC,> 88 µM
same,TGI,HOP-92 NSCLC,85.5 µM
same,TGI,HS 578T breast,> 91.4 µM
same,TGI,HT29 colon,> 100 µM
same,TGI,IGROV1 ovarian,> 100 µM
same,TGI,K-562 leukemia,> 100 µM
same,TGI,KM12 colon,> 100 µM
same,TGI,KM20L2 colon,> 100 µM
same,TGI,LOX IMVI melanoma,38 µM
same,TGI,LXFL 529 NSCLC,> 100 µM
same,TGI,M14 melanoma,32.5 µM
same,TGI,M19-MEL melanoma,> 100 µM
same,TGI,MALME-3M melanoma,> 100 µM
same,TGI,MCF7 breast,> 100 µM
same,TGI,MDA-MB-231 breast,> 100 µM
same,TGI,MDA-MB-435,> 100 µM
same,TGI,MDA-N,> 100 µM
same,TGI,MOLT-4 leukemia,17.3 µM
same,TGI,NCI-H226 lung,> 100 µM
same,TGI,NCI-H23 lung,81.5 µM
same,TGI,NCI-H460 lung,> 65.6 µM
same,TGI,NCI-H522 lung,> 79.7 µM
same,TGI,NCI/ADR-RES ovarian,> 100 µM
same,TGI,OVCAR-3 ovarian,> 100 µM
same,TGI,OVCAR-4 ovarian,> 100 µM
same,TGI,OVCAR-5 ovarian,> 100 µM
same,TGI,OVCAR-8 ovarian,> 100 µM
same,TGI,PC-3 prostate,> 100 µM
same,TGI,RPMI-8226 leukemia,> 100 µM
same,TGI,RXF 393 renal,> 97.2 µM
same,TGI,SF-268 CNS,> 100 µM
same,TGI,SF-295 CNS,> 100 µM
same,TGI,SF-539 CNS,> 100 µM
same,TGI,SK-MEL-2 melanoma,> 100 µM
same,TGI,SK-MEL-28 melanoma,> 100 µM
same,TGI,SK-MEL-5 melanoma,> 100 µM
same,TGI,SK-OV-3 ovarian,> 100 µM
same,TGI,SN12C renal,> 100 µM
same,TGI,SNB-19 CNS,> 80.8 µM
same,TGI,SNB-75 CNS,> 90.4 µM
same,TGI,SNB-78 CNS,> 100 µM
same,TGI,SR leukemia,62.7 µM
same,TGI,SW-620 colon,> 100 µM
same,TGI,T-47D breast,> 100 µM
same,TGI,TK-10 renal,> 100 µM
same,TGI,U251 CNS,> 100 µM
same,TGI,UACC-257 melanoma,> 100 µM
same,TGI,UACC-62 melanoma,> 100 µM
same,TGI,UO-31 renal,> 43.9 µM
CC(=O)NC(CCCN(Cc1ccccc1)C(=O)NCCCl)C(=O)NCc1ccccc1 (centres undefined),TGI,786-0 renal,> 100 µM
same,TGI,A498 renal,> 100 µM
same,TGI,A549 NSCLC,> 100 µM
same,TGI,ACHN renal,> 100 µM
same,TGI,CAKI-1 renal,> 100 µM
same,TGI,CCRF-CEM leukemia,> 100 µM
same,TGI,COLO 205 colon,> 100 µM
same,TGI,DLD-1 colon,> 100 µM
same,TGI,DMS 114 small cell lung,> 100 µM
same,TGI,DMS 273 small cell lung,> 100 µM
same,TGI,EKVX NSCLC,> 100 µM
same,TGI,HCC-2998 colon,> 100 µM
same,TGI,HCT-116 colon,> 100 µM
same,TGI,HCT-15 colon,> 100 µM
same,TGI,HL-60(TB) leukemia,> 100 µM
same,TGI,HOP-18 NSCLC,> 100 µM
same,TGI,HOP-62 NSCLC,> 100 µM
same,TGI,HOP-92 NSCLC,> 100 µM
same,TGI,HT29 colon,> 100 µM
same,TGI,IGROV1 ovarian,> 100 µM
same,TGI,K-562 leukemia,> 100 µM
same,TGI,KM12 colon,> 100 µM
same,TGI,KM20L2 colon,> 100 µM
same,TGI,LOX IMVI melanoma,> 100 µM
same,TGI,LXFL 529 NSCLC,> 100 µM
same,TGI,M14 melanoma,> 100 µM
same,TGI,M19-MEL melanoma,> 100 µM
same,TGI,MALME-3M melanoma,> 100 µM
same,TGI,MOLT-4 leukemia,> 100 µM
same,TGI,NCI-H226 lung,> 100 µM
same,TGI,NCI-H23 lung,> 100 µM
same,TGI,NCI-H460 lung,> 100 µM
same,TGI,NCI-H522 lung,> 100 µM
same,TGI,OVCAR-3 ovarian,> 100 µM
same,TGI,OVCAR-4 ovarian,> 100 µM
same,TGI,OVCAR-5 ovarian,> 100 µM
same,TGI,OVCAR-8 ovarian,> 100 µM
same,TGI,RPMI-8226 leukemia,> 100 µM
same,TGI,RXF 393 renal,> 100 µM
same,TGI,SF-268 CNS,> 100 µM
same,TGI,SF-295 CNS,> 100 µM
same,TGI,SF-539 CNS,> 100 µM
same,TGI,SK-MEL-2 melanoma,> 100 µM
same,TGI,SK-MEL-28 melanoma,> 100 µM
same,TGI,SK-MEL-5 melanoma,> 100 µM
same,TGI,SK-OV-3 ovarian,> 100 µM
same,TGI,SN12C renal,> 100 µM
same,TGI,SNB-19 CNS,> 100 µM
same,TGI,SNB-75 CNS,> 100 µM
same,TGI,SNB-78 CNS,> 100 µM
same,TGI,SR leukemia,> 100 µM
same,TGI,SW-620 colon,> 100 µM
same,TGI,TK-10 renal,> 100 µM
same,TGI,U251 CNS,> 100 µM
same,TGI,UACC-257 melanoma,> 100 µM
same,TGI,UACC-62 melanoma,> 100 µM
same,TGI,UO-31 renal,> 100 µM
